Test results as given in PMC11002980 (RSC Advances, 2024).

tested on: MCF-7 breast cancer cells; experiment: MTT cytotoxicity assay on MCF-7 cells; type: cell-based; details: Homo sapiens, MCF7, read-out: MCF-7 (IC50)

SMILES	IC50 [µM]
COc1cc(NC(=O)C2=C(C)NC(C)=C(C(=O)Nc3cc(OC)c(Cl)cc3OC)C2c2ccc(O)cc2)c(OC)cc1Cl [HD-10, N ^3,N^5-Bis(4-chloro-2,5-dimethoxyphenyl)-4-(4-hydroxyphenyl)-2,6-dimethyl-1,4-dihydropyridine-3,5-dicarboxamide]	39.6
COc1ccc(NC(=O)C2=C(C)NC(C)=C(C(=O)Nc3ccc(OC)cc3OC)C2c2ccccc2)c(OC)c1 [HD-1, N ^3,N^5-Bis(2,4-dimethoxyphenyl)-2,6-dimethyl-4-phenyl-1,4-dihydropyridine-3,5-dicarboxamide]	66.5
COc1ccc(NC(=O)C2=C(C)NC(C)=C(C(=O)Nc3ccc(OC)cc3OC)C2c2cccc(Cl)c2)c(OC)c1 [HD-3, 4-(3-Chlorophenyl)-N^3,N^5-bis(2,4-dimethoxyphenyl)-2,6-dimethyl-1,4-dihydropyridine-3,5-dicarboxamide]	59.4
COc1cc(NC(=O)C2=C(C)NC(C)=C(C(=O)Nc3cc(OC)c(Cl)cc3OC)C2c2ccc(Cl)cc2)c(OC)cc1Cl [HD-7, N ^3,N^5-Bis(4-chloro-2,5-dimethoxyphenyl)-4-(4-chlorophenyl)-2,6-dimethyl-1,4-dihydropyridine-3,5-dicarboxamide]	16.8
COc1ccc(NC(=O)C2=C(C)NC(C)=C(C(=O)Nc3cc(OC)c(Cl)cc3OC)C2c2ccc(O)cc2)c(OC)c1 (stereo not shown) [HD-15, N ^3-(4-Chloro-2,5-dimethoxyphenyl)-N^5-(2,4-dimethoxyphenyl)-4-(4-hydroxyphenyl)-2,6-dimethyl-1,4-dihydropyridine-3,5-dicarboxamide]	42.2
COc1ccc(NC(=O)C2=C(C)NC(C)=C(C(=O)Nc3cc(OC)c(Cl)cc3OC)C2c2cccc(Cl)c2)c(OC)c1 (stereo not shown) [HD-13, N ^3-(4-Chloro-2,5-dimethoxyphenyl)-4-(3-chlorophenyl)-N^5-(2,4-dimethoxyphenyl)-2,6-dimethyl-1,4-dihydropyridine-3,5-dicarboxamide]	44.1
COc1ccc(NC(=O)C2=C(C)NC(C)=C(C(=O)Nc3cc(OC)c(Cl)cc3OC)C2c2ccc(Cl)cc2)c(OC)c1 (stereo not shown) [HD-12, N ^3-(4-Chloro-2,5-dimethoxyphenyl)-4-(4-chlorophenyl)-N^5-(2,4-dimethoxyphenyl)-2,6-dimethyl-1,4-dihydropyridine-3,5-dicarboxamide]	37.5
COc1cc(NC(=O)C2=C(C)NC(C)=C(C(=O)Nc3cc(OC)c(Cl)cc3OC)C2c2cccc(Cl)c2)c(OC)cc1Cl [HD-8, N ^3,N^5-Bis(4-chloro-2,5-dimethoxyphenyl)-4-(3-chlorophenyl)-2,6-dimethyl-1,4-dihydropyridine-3,5-dicarboxamide]	18.3
COc1ccc(NC(=O)C2=C(C)NC(C)=C(C(=O)Nc3cc(OC)c(Cl)cc3OC)C2c2ccco2)c(OC)c1 (stereo not shown) [HD-14, N ^3-(4-Chloro-2,5-dimethoxyphenyl)-N^5-(2,4-dimethoxyphenyl)-4-(furan-2-yl)-2,6-dimethyl-1,4-dihydropyridine-3,5-dicarboxamide]	52.3
COc1ccc(NC(=O)C2=C(C)NC(C)=C(C(=O)Nc3ccc(OC)cc3OC)C2c2ccc(Cl)cc2)c(OC)c1 [HD-2, 4-(4-Chlorophenyl)-N^3,N^5-bis(2,4-dimethoxyphenyl)-2,6-dimethyl-1,4-dihydropyridine-3,5-dicarboxamide]	51.4
CS(=O)(=O)CCNCc1ccc(-c2ccc3ncnc(Nc4ccc(OCc5cccc(F)c5)c(Cl)c4)c3c2)o1 [Lapatinib, reference compound]	2.02
COc1ccc(NC(=O)C2=C(C)NC(C)=C(C(=O)Nc3cc(OC)c(Cl)cc3OC)C2c2ccccc2)c(OC)c1 (stereo not shown) [HD-11, N ^3-(4-Chloro-2,5-dimethoxyphenyl)-N^5-(2,4-dimethoxyphenyl)-2,6-dimethyl-4-phenyl-1,4-dihydropyridine-3,5-dicarboxamide]	42.4
COc1cc(NC(=O)C2=C(C)NC(C)=C(C(=O)Nc3cc(OC)c(Cl)cc3OC)C2c2ccccc2)c(OC)cc1Cl [HD-6, N ^3,N^5-Bis(4-chloro-2,5-dimethoxyphenyl)-2,6-dimethyl-4-phenyl-1,4-dihydropyridine-3,5-dicarboxamide]	21.3
COc1cc(NC(=O)C2=C(C)NC(C)=C(C(=O)Nc3cc(OC)c(Cl)cc3OC)C2c2ccco2)c(OC)cc1Cl [HD-9, N ^3,N^5-Bis(4-chloro-2,5-dimethoxyphenyl)-4-(furan-2-yl)-2,6-dimethyl-1,4-dihydropyridine-3,5-dicarboxamide]	57.7
COc1ccc(NC(=O)C2=C(C)NC(C)=C(C(=O)Nc3ccc(OC)cc3OC)C2c2ccc(O)cc2)c(OC)c1 [HD-5, N ^3,N^5-Bis(2,4-dimethoxyphenyl)-4-(4-hydroxyphenyl)-2,6-dimethyl-1,4-dihydropyridine-3,5-dicarboxamide]	62.1
COc1ccc(NC(=O)C2=C(C)NC(C)=C(C(=O)Nc3ccc(OC)cc3OC)C2c2ccco2)c(OC)c1 [HD-4, N ^3,N^5-Bis(2,4-dimethoxyphenyl)-4-(furan-2-yl)-2,6-dimethyl-1,4-dihydropyridine-3,5-dicarboxamide]	36

target: EGFR^wt kinase (Homo sapiens, UniProt P00533); experiment: EGFR^wt kinase inhibition assay; type: biochemical; details: not given
Sequence (P00533 25-1210): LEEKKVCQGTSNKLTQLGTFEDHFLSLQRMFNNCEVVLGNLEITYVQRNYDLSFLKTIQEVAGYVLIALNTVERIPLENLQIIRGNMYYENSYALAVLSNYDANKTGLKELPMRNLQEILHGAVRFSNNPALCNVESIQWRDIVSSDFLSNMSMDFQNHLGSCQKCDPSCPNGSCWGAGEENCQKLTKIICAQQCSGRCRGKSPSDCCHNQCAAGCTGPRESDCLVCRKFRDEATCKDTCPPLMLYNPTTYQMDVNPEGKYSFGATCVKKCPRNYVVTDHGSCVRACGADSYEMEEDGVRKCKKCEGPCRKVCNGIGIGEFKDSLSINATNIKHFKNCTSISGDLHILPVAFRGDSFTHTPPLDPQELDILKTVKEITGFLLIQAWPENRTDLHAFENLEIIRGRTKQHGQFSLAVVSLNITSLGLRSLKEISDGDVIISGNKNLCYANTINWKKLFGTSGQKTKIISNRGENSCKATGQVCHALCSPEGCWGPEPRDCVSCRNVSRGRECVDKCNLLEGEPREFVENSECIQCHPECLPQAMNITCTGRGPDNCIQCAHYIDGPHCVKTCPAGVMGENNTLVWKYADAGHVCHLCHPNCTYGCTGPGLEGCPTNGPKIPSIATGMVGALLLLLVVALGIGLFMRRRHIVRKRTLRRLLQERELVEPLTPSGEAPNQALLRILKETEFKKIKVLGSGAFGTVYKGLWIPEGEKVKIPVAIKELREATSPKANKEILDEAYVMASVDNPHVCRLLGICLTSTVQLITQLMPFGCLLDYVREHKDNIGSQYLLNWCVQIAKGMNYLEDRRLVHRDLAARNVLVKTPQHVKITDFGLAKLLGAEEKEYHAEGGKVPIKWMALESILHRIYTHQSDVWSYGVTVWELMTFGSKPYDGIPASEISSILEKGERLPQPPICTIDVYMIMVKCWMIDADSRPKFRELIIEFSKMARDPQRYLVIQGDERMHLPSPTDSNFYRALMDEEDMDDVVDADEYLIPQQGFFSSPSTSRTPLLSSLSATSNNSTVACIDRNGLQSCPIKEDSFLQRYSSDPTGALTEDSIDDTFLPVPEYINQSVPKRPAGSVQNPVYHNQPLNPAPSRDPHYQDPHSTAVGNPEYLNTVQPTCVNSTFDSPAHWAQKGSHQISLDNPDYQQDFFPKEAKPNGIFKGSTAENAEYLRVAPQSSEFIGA

IC50 [µM]	SMILES
0.0265 ± 0.00142	COc1cc(NC(=O)C2=C(C)NC(C)=C(C(=O)Nc3cc(OC)c(Cl)cc3OC)C2c2ccc(Cl)cc2)c(OC)cc1Cl [HD-7, N ^3,N^5-Bis(4-chloro-2,5-dimethoxyphenyl)-4-(4-chlorophenyl)-2,6-dimethyl-1,4-dihydropyridine-3,5-dicarboxamide]
0.0159 ± 0.0012	COc1cc(NC(=O)C2=C(C)NC(C)=C(C(=O)Nc3cc(OC)c(Cl)cc3OC)C2c2cccc(Cl)c2)c(OC)cc1Cl [HD-8, N ^3,N^5-Bis(4-chloro-2,5-dimethoxyphenyl)-4-(3-chlorophenyl)-2,6-dimethyl-1,4-dihydropyridine-3,5-dicarboxamide]
0.0305 ± 0.00148	COc1cc(NC(=O)C2=C(C)NC(C)=C(C(=O)Nc3cc(OC)c(Cl)cc3OC)C2c2ccccc2)c(OC)cc1Cl [HD-6, N ^3,N^5-Bis(4-chloro-2,5-dimethoxyphenyl)-2,6-dimethyl-4-phenyl-1,4-dihydropyridine-3,5-dicarboxamide]
